Our source for the IC50, ED50 and inhibition in vivo values is ChEMBL document CHEMBL1132704, “Design and synthesis of sulfonyl-substituted 4,5-diarylthiazoles as selective cyclooxygenase-2 inhibitors” (Bioorg Med Chem Lett, 1999).

By IC50 is commonly meant the concentration that gives 50% inhibition. Low values mean higher potency, high ones lower potency. As usually defined, the ED50 is the dose at which the effect has come halfway, by size or by number of responders. By inhibition in vivo is commonly meant the share of the control response that was lost under treatment. The low end stands for a response near the control, the high end for a response far below the control.

The target in test [1] is Prostaglandin G/H synthase 1 (Homo sapiens, UniProt P23219).
Chain of Prostaglandin G/H synthase 1 (P23219 whole entry): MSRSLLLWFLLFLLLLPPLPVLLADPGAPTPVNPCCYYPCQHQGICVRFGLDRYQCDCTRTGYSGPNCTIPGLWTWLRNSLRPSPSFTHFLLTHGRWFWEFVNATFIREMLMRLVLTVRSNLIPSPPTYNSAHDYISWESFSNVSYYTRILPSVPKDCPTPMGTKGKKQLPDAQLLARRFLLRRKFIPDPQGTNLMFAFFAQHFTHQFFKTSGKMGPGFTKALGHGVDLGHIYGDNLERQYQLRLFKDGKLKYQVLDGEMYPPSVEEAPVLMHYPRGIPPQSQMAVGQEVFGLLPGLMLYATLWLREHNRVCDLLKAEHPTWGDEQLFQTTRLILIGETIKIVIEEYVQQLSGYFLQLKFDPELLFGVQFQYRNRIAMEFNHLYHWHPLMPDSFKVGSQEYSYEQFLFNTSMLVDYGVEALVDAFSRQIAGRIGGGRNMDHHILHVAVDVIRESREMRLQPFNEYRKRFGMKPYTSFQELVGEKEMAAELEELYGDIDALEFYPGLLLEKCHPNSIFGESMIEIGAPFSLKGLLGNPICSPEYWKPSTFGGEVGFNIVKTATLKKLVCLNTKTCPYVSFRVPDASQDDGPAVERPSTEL
Description: Inhibition of human cyclooxygenase-1 (hCOX-1) enzyme.
The target of test [2] is T1, Prostaglandin G/H synthase 2 (Homo sapiens, UniProt P35354).
T1 sequence (P35354 whole entry): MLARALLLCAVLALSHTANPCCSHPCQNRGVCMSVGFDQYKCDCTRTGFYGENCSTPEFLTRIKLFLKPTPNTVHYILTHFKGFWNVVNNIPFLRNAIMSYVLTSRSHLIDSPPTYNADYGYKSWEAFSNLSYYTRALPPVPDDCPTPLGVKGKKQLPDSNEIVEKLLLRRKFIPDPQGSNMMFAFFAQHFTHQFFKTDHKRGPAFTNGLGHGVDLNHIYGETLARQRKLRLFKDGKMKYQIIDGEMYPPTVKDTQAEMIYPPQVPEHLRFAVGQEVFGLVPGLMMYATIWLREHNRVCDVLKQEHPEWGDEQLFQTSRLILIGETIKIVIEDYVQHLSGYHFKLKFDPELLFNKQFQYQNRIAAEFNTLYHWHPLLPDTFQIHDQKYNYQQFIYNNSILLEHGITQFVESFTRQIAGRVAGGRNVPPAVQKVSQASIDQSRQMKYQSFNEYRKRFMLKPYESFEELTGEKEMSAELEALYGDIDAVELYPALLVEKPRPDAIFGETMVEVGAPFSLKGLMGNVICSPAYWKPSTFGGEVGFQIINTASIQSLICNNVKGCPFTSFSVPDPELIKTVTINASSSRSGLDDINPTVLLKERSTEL

In test [3] the test system is Rattus norvegicus. As to the kind of experiment: Compound was evaluated for the antiinflammatory activity in vivo in the carrageenan rat paw edema (CPE). The format is functional. (In general: In the carrageenan paw model, swelling and tenderness develop within hours.)
Test [4] relates to Rattus norvegicus. Kind of test: Compound was evaluated for the percent inhibition of hyperalgesia at an effective dose of 20 mg/kg in rat. It counts as functional.

Take `CS(=O)(=O)c1ccc(-c2sc(CCCc3ccc(Br)cc3)nc2-c2ccc(F)cc2)cc1`: the IC50 in test [1] was over 10 µM; in test [2], 0.007 µM.

Take `CS(=O)(=O)c1ccc(-c2sc(-c3cccs3)nc2-c2ccc(F)cc2)cc1`: the results for the IC50 in test [1] and in test [2] were over 100 µM and 0.021 µM, respectively.

In the case of `CS(=O)(=O)c1ccc(-c2sc(CCCc3ccccc3)nc2-c2ccc(F)cc2)cc1`, the half-maximal inhibitory concentration (IC50) in test [1] is over 1000 µM; in test [2], 0.52 µM.

As for `Cc1nc(-c2ccc(F)cc2)c(-c2ccc(S(C)(=O)=O)cc2)s1`, the IC50 in test [1] was over 10 µM; in test [2], 0.11 µM.

`CS(=O)(=O)c1ccc(-c2sc(-c3ccncc3)nc2-c2ccc(F)cc2)cc1`: the IC50 in test [1] is over 100 µM; in test [2] it was 1.6 µM.

The compound `CS(=O)(=O)c1ccc(-c2sc(-c3ccccc3Cl)nc2-c2ccc(F)cc2F)cc1` gave an IC50 in test [2] of 0.021 µM.

For the compound `CS(=O)(=O)c1ccc(-c2nc(C(F)(F)F)sc2-c2ccc(F)cc2)cc1`, the results for the IC50 in test [1] and in test [2] were 1.07 µM and 0.006 µM, respectively.

With `CC(C)(C)c1nc(-c2ccc(F)cc2)c(-c2ccc(S(C)(=O)=O)cc2)s1`, the figures for the IC50 in test [1] and in test [2] were over 100 µM and 0.11 µM, respectively.

In turn, `CS(=O)(=O)c1ccc(-c2sc(-c3ccccc3Cl)nc2-c2cccs2)cc1` yielded an IC50 in test [1] of over 100 µM.

As for `CC(C)(C)c1ccc(-c2nc(-c3ccc(F)cc3)c(-c3ccc(S(C)(=O)=O)cc3)s2)cc1`, the IC50 in test [1] and in test [2] was over 100 µM each time.

In the case of `CS(=O)(=O)c1ccc(-c2sc(-c3ccccc3Cl)nc2-c2cc(F)ccc2F)cc1`, the IC50 in test [1] and in test [2] was over 100 µM throughout.

Turning to `CS(=O)(=O)c1ccc(-c2sc(-c3ccccc3Cl)nc2-c2ccsc2)cc1`, in test [1], the half-maximal inhibitory concentration (IC50) is over 100 µM.

As for `CS(=O)(=O)c1ccc(-c2sc(Cc3ccccc3)nc2-c2ccc(F)cc2)cc1`, the IC50 in test [1] was over 100 µM; in test [2], 0.018 µM.

Take `CS(=O)(=O)c1ccc(-c2sc(C(F)(F)F)nc2-c2ccc(F)cc2)cc1`: the IC50 in test [1] is over 100 µM; in test [2] it was 0.023 µM.

In the case of `Cc1nc(-c2ccc(S(C)(=O)=O)cc2)c(-c2ccc(F)cc2)s1`, the values for the IC50 in test [1] and in test [2] were over 100 µM and 0.12 µM, respectively.

As for `CCc1nc(-c2ccc(F)cc2)c(-c2ccc(S(C)(=O)=O)cc2)s1`, the values for the IC50 in test [1] and in test [2] were 19 µM and 0.023 µM, respectively.

Regarding `CS(=O)(=O)c1ccc(-c2sc(-c3cccnc3)nc2-c2ccc(F)cc2)cc1`, the 50% inhibitory concentration (IC50) in test [1] is over 1000 µM; in test [2], 0.43 µM.

For `CS(=O)(=O)c1ccc(-c2sc(-c3ccccc3Cl)nc2-c2ccc(F)cc2)cc1`, the IC50 is over 100 µM in test [1] and 0.05 µM in test [2]. The compound further showed an ED50 in test [3] of 20 mg/kg. In test [4], this compound showed an inhibition in vivo at 20 mg/kg of 27%.

As to `CS(=O)(=O)c1ccc(-c2sc(-c3ccc(Cl)cc3)nc2-c2ccc(F)cc2)cc1`, the IC50 in test [1] is over 100 µM; in test [2] it was 0.05 µM.

Turning to `CS(=O)(=O)c1ccc(-c2sc(CCc3ccccc3)nc2-c2ccc(F)cc2)cc1`, the IC50 in test [1] was over 100 µM; in test [2] it was 0.032 µM.

For `COc1ccc(-c2nc(-c3ccc(F)cc3)c(-c3ccc(S(C)(=O)=O)cc3)s2)cc1`, the results for the IC50 in test [1] and in test [2] were over 10 µM and 0.27 µM, respectively.

In the case of `CCOC(=O)c1nc(-c2ccc(F)cc2)c(-c2ccc(S(C)(=O)=O)cc2)s1`, the values for the IC50 in test [1] and in test [2] were over 100 µM and 0.61 µM, respectively.

Consider `CS(=O)(=O)c1ccc(-c2sc(-c3ccccc3Cl)nc2-c2ccccc2F)cc1`, for which the 50% inhibitory concentration (IC50) in test [1] was over 100 µM; in test [2], 0.01 µM.

Consider `CS(=O)(=O)c1ccc(-c2sc(-c3ccccc3Cl)nc2-c2cccc(F)c2)cc1`, for which the values for the IC50 in test [1] and in test [2] were over 100 µM and 0.016 µM, respectively.

With `CS(=O)(=O)c1ccc(-c2nc(-c3ccccc3)sc2-c2ccc(F)cc2)cc1`, the IC50 in test [1] is over 100 µM; in test [2], 0.54 µM.

`CS(=O)(=O)c1ccc(-c2sc(CC#N)nc2-c2ccc(F)cc2)cc1`: the IC50 in test [1] is over 100 µM; in test [2], 0.35 µM.

As to `CS(=O)(=O)c1ccc(-c2sc(-c3ccccc3)nc2-c2ccc(F)cc2)cc1`, the IC50 in test [1] was over 100 µM; in test [2], over 30 µM.

On to `CS(=O)(=O)c1ccc(-c2sc(-c3ccccc3Cl)nc2-c2ccccc2)cc1`, for which the IC50 in test [1] is over 100 µM; in test [2], 0.01 µM.
